Test results reported in ChEMBL document CHEMBL3603739, “Novel diazabicycloalkane delta opioid agonists” (Bioorg Med Chem, 2015).
The source made the active and inactive calls. No cut-off for these calls is given here.

How the values were obtained:
Mu-type opioid receptor = Mu-type opioid receptor (Mus musculus, UniProt P42866); test: Displacement of [3H]DAMGO from mu opioid receptor in mouse brain membranes by liquid scintillation counting method; assay type: cell membranes, Membrane
[1] = target: Delta-type opioid receptor (Mus musculus, UniProt P32300); test: Displacement of [3H]DPDPE from delta opioid receptor in mouse brain membranes by liquid scintillation counting method; assay type: cell membranes, Membrane
Delta-type opioid receptor, sequence (P32300 whole entry): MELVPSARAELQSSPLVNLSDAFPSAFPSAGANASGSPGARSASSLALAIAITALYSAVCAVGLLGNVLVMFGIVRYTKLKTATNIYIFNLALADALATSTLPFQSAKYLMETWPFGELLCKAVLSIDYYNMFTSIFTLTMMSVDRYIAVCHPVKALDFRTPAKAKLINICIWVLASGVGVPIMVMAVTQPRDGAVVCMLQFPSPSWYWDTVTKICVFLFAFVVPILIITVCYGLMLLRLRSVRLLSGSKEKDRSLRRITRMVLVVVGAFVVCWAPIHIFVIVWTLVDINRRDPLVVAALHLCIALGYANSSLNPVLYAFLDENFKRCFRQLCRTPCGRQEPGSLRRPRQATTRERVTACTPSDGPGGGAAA

[2] = target: Kappa-type opioid receptor (Mus musculus, UniProt P33534); test: Displacement of [3H]U-69,593 from kappa opioid receptor in mouse brain membranes by liquid scintillation counting method; assay type: cell membranes, Membrane
Kappa-type opioid receptor, sequence (P33534 whole entry): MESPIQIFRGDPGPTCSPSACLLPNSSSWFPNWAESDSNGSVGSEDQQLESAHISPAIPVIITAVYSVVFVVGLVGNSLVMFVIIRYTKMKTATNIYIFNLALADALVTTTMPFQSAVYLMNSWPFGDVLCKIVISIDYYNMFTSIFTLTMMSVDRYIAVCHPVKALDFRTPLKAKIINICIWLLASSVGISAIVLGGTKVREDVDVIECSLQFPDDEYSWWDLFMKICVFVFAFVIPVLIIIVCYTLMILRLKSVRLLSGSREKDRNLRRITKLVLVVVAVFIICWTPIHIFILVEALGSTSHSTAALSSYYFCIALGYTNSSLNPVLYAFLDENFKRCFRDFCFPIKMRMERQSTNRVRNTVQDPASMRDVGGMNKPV

Mus musculus [3] = organism: Mus musculus; test: Selectivity index, ratio of Ki for mu opioid receptor in mouse brain membranes to Ki for delta opioid receptor in mouse brain membranes; assay type: cell membranes
Mus musculus [4] = organism: Mus musculus; test: Selectivity index, ratio of Ki for kappa opioid receptor in mouse brain membranes to Ki for delta opioid receptor in mouse brain membranes; assay type: cell membranes
NG108-15 [5] = test: Intrinsic agonist activity at delta opioid receptor in mouse/rat NG108-15 cells assessed as increase in ERK1/2 phosphorylation at 1 to 50 uM incubated for 20 mins by Western blot method; assay type: cell-based
NG108-15 [6] = test: Intrinsic agonist activity at delta opioid receptor in mouse/rat NG108-15 cells assessed as increase in ERK1/2 phosphorylation at 50 nM pre-treated with 500 nM opioid antagonist naloxone for 5 mins followed by compound exposure for 20 mins by Western blot method; assay type: cell-based
[7] = target: Delta-type opioid receptor (Mus musculus) (UniProt P32300); test: Agonist activity at delta opioid receptor in mouse vas deferens assessed as reduction in electric field stimulation-induced twitch contractions amplitude
Delta-type opioid receptor (Mus musculus), sequence (P32300 whole entry): as the sequence (P32300 whole entry) above

[8] = target: Delta-type opioid receptor (Mus musculus) (UniProt P32300); test: Agonist activity at delta opioid receptor in mouse vas deferens assessed as reduction in electric field stimulation-induced twitch contractions amplitude in presence of 1 nM natrindole
[9] = target: Delta-type opioid receptor (Mus musculus) (UniProt P32300); test: Agonist activity at delta opioid receptor in mouse vas deferens assessed as reduction in electric field stimulation-induced twitch contractions amplitude relative to control
NG108-15 [10] = test: Intrinsic agonist activity at delta opioid receptor in mouse/rat NG108-15 cells assessed as increase in ERK1/2 phosphorylation at 0.1 to 100 uM iincubated for 20 mins by Western blot method; assay type: cell-based
NG108-15 [11] = test: Intrinsic agonist activity at delta opioid receptor in mouse/rat NG108-15 cells assessed as increase in ERK1/2 phosphorylation by Western blot method; assay type: cell-based; conditions: TDE = time-dependent effect
NG108-15 [12] = test: Toxicity in mouse/rat NG108-15 cells; assay type: cell-based
NG108-15 [13] = test: Intrinsic agonist activity at delta opioid receptor in mouse/rat NG108-15 cells assessed as increase in ERK1/2 phosphorylation at 10 nM pre-treated with 500 nM opioid antagonist naloxone for 5 mins followed by compound exposure for 20 mins by Western blot method; assay type: cell-based
NG108-15 [14] = test: Intrinsic agonist activity at delta opioid receptor in mouse/rat NG108-15 cells assessed as increase in ERK1/2 phosphorylation at 0.1 to 5 uM incubated for 20 mins by Western blot method; assay type: cell-based
NG108-15 [15] = test: Intrinsic agonist activity at delta opioid receptor in mouse/rat NG108-15 cells assessed as increase in ERK1/2 phosphorylation At 1 nM pre-treated with 500 nM opioid antagonist naloxone for 5 mins followed by compound exposure for 20 mins by Western blot method; assay type: cell-based
NG108-15 [16] = test: Intrinsic agonist activity at delta opioid receptor in mouse/rat NG108-15 cells assessed as increase in ERK1/2 phosphorylation At 5 nM pre-treated with 500 nM opioid antagonist naloxone for 5 mins followed by compound exposure for 20 mins by Western blot method; assay type: cell-based

Mu-type opioid receptor, sequence (P42866 whole entry): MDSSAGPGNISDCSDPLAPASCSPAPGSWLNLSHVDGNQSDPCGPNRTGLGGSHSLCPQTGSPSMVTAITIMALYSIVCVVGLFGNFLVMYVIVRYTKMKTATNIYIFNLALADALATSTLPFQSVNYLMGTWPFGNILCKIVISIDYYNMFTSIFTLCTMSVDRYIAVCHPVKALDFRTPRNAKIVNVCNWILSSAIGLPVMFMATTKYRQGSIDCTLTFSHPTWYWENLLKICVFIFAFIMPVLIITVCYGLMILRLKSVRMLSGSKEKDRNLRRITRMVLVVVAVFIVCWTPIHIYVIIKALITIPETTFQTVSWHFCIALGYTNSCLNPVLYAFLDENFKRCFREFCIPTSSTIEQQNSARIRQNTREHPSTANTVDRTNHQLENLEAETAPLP

SMILES	Ki (Mu-type opioid receptor)	Ki [1]	Ki [2]	Ratio Ki (Mus musculus [3])	Ratio Ki (Mus musculus [4])	Activity (NG108-15 [5])	Activity (NG108-15 [6])	Activity [7]	Activity [8]	Imax [9]	Activity (NG108-15 [10])	Activity (NG108-15 [11])	Activity (NG108-15 [12])	Activity (NG108-15 [13])	Activity (NG108-15 [14])	Activity (NG108-15 [15])	Activity (NG108-15 [16])
C=CCN1C2CCCC1CN(C(c1ccc(C(=O)N(CC)CC)cc1)c1cccc(OC)c1)CC2 (mixture of isomers)	950 nM	9.1 nM	4250 nM	104	467	Active	Active	Active	inactive	90%	–	–	–	–	–	–	–
C=CCN1C[C@H](C)N([C@H](c2ccc(C(=O)N(CC)CC)cc2)c2cccc(OC)c2)C[C@H]1C [SNC-80]	–	–	–	–	–	–	–	Active	inactive	–	Dose-dependent effect	tde	Toxic	inactive	–	–	–
C=CCN1CC2CC(C1)N2C(c1ccc(C(=O)N(CC)CC)cc1)c1cccc(OC)c1 (racemic)	1150 nM	1.76 nM	4000 nM	653	2270	Active	–	Active	inactive	90%	–	–	–	–	–	–	–
C=CCN1C2CCC1CN(C(c1ccc(C(=O)N(CC)CC)cc1)c1cccc(OC)c1)CC2 (mixture of isomers)	183 nM	1.84 nM	2450 nM	99.5	1330	–	–	–	–	–	–	–	–	–	Active	Active	–
C=CCN1CC2CCCC(C1)N2C(c1ccc(C(=O)N(CC)CC)cc1)c1cccc(OC)c1 (racemic)	2270 nM	1.88 nM	2200 nM	1210	1170	Active	Active	–	–	–	–	–	–	–	–	–	–
C=CCN1CC2CCC(C1)N2C(c1ccc(C(=O)N(CC)CC)cc1)c1cccc(OC)c1 (racemic)	3830 nM	0.34 nM	300 nM	11300	882	–	–	Active	inactive	90%	–	–	–	–	Active	–	Active
